In patent publication US20110071630A1, “SODIUM CHANNEL BLOCKER DELIVERY SYSTEM WITH SCLERAL LENS” (Boston Foundation for Sight, priority 2009, published 2011):

Assays:
corneal neuropathic pain [1] = assay: Treatment of corneal neuropathic pain in patients, drug solution in the fluid reservoir of a scleral lens (BOS-P); type: in vivo, human
Description: (§1) A patient with well established primary Sjögren's syndrome and severe dry eyes was treated for intense, constant corneal pain using the anesthetic delivery system disclosed herein. Specifically, the patient was treated with bupivacaine and BOS-P devices. The concentration of non-preserved bupivacaine was rapidly titrated using frequent (every 2-5 minutes) drops in the more symptomatic left eye (open label) measuring corneal sensitivity with a Cochet-Bonnet aesthesiometer (with adequate recovery times) until reaching the concentration that avoided any depression of corneal sensitivity. The sub-anesthetic concentration in this patient was determined to be 0.001%. Both BOS-P devices were filled with 0.001% bupivacaine and inserted into the patient's eyes. The patient then left.
The patient was given a vial of 0.01% bupivacaine to dilute 1:10 (e.g., add one drop of 0.01% bupivacaine to nine drops of saline) to fill the reservoir of the left lens prior to inserting it the next morning.
They wore the BOS-P containing 0.001% bupivacaine in their left eye, and the BOS-P containing saline in their right eye unmasked to the patient and doctor, for about 8 hours. […] Corneal sensation in the treated eye was normal. […]

corneal sensation = assay: Corneal sensitivity measured with a Cochet-Bonnet aesthesiometer; type: in vivo, human
Source text: The sub-hypoesthetic dose for a sodium channel blocker or a sodium channel modulator may vary between patients. […] The sub-hypoesthetic dose of a sodium channel blocker or a sodium channel modulator can be determined for an individual patient by selecting a higher starting concentration and gradually reducing the concentration via titration until reaching a sub-hypoesthetic dose as determined by a contact and non-contact esthesiometer. A non-limiting example of a method of determining corneal sensitivity is Cochet-Bonnet aesthesiometry.
As used herein, the phrases “sub-anesthetic dose” and “sub-anesthetic concentration” refer to a dose of a sodium channel blocker or a sodium channel modulator or a sodium channel modulator that is lower than the anesthetic dose. “Sub-anesthetic dose” and “sub-anesthetic concentration” may be used interchangeably. The sub-anesthetic dose of a sodium channel blocker or a sodium channel modulator may vary between patients. The sub-anesthetic dose of a sodium channel blocker or a sodium channel modulator can be determined for an individual patient by selecting a higher starting concentration and gradually reducing the concentration via titration until reaching a sub-anesthetic dose as determined by a contact and non-contact esthesiometer. A non-limiting example of a starting concentration of a sodium channel blocker or a sodium channel modulator is about 0.02%. In some embodiments, the concentration of the sodium channel blocker or a sodium channel modulator may be titrated down to a concentration that avoids any depression of corneal sensitivity. A non-limiting example of a method of determining corneal sensitivity is Cochet-Bonnet aesthesiometry.
as §1
The patient was given a vial of 0.01% bupivacaine to dilute 1:10 (e.g., add one drop of 0.01% bupivacaine to nine drops of saline) to fill the reservoir of the left lens prior to inserting it the next morning. […]

cornea [2] = assay: Examination of the cornea for adverse effects (fluorescein staining, slit lamp examination, confocal microscopy); type: in vivo, human
Description: They wore the BOS-P containing 0.001% bupivacaine in their left eye, and the BOS-P containing saline in their right eye unmasked to the patient and doctor, for about 8 hours. […] Corneal sensation in the treated eye was normal.
The patient returned the following day 2 hours after inserting the scleral lenses containing 0.015% ropivacaine.
A patient suffered from severe corneal neuropathic pain for many years, greatly limiting the patient's quality of life. This disease was refractory to previous treatments. Lacosamide was placed in the fluid reservoir of the device where it remained in contact with the cornea while it was worn (approximately 10 hours/day).

cornea [3] = settings: 0.05% concentration, after photorefractive keratectomy; cited from earlier work
corneal neuropathic pain [4] = assay: Eye drops without scleral lens for corneal neuropathic pain; type: in vivo, human; settings: Example 5, eye drops 0.5% lacosamide
Description: Eye drops containing 0.5% lacosamide were administered to the eyes of two patients and to the an eye of the inventor. […] Therefore, it is believed that lacosamide may be used in eye drops at a concentration of up to 5% to treat corneal neuropathic pain without depressing corneal sensation.

Which “eye comfort reported by patient” value (corneal neuropathic pain [1]; Example 1, next day after both BOS-P devices were filled with 0.001% bupivacaine) does the source give for `CCCCN1CCCCC1C(=O)Nc1c(C)cccc1C` (stereo not shown) [bupivacaine] here?
The value was “more comfortable than they had been in 3 months”.

What about the “pain reported by patient at day's end” value (corneal neuropathic pain [1]; Example 1, second day, left lens reservoir filled with non-preserved bupivacaine) of the same compound?
The value was “virtual absence of pain in either eye”.

And the “pain after exposure to glass cleaner or white board marker” value (corneal neuropathic pain [1]; Example 1, second day, exposure would ordinarily trigger severe pain)?
The value was “little or no pain”.

What about the “pain reported after about 8 hours of wear” value (corneal neuropathic pain [1]; Example 1, third day, 0.001% bupivacaine in left BOS-P, saline in right BOS-P) of the same compound?
Its value is “virtually no pain in either eye”.

And the “pain, Visual Analog Scale” value (corneal neuropathic pain [1]; Example 1, third day, on arrival)?
The value was “virtually no pain in either eye”.

What about the “eye symptoms (photosensitivity, burning pain, inability to read)” value (corneal neuropathic pain [1]; Example 2, 0.002% bupivacaine in both BOS-P lenses, at least 12 hours/day, over several weeks) of the same compound?
Its value is “resolved”.

And the eye symptoms (corneal neuropathic pain [1]; Example 2, bupivacaine diluted to 0.0014% in BOS-P)?
Its eye symptoms is “resolved”.

What about the “sub-anesthetic concentration (concentration that avoided any depression of corneal sensitivity)” value (corneal sensation; Example 1, Sjögren's syndrome patient, titration with drops every 2-5 minutes in left eye) of the same compound?
The value was 0.001%.

What about the “corneal sensation by Cochet-Bonnet aesthesiometry” value (corneal sensation; in vivo) of the same compound?
Its value is “remained intact”.

And the “fluorescein staining after lens removal” value (cornea [2]; in vivo)?
The value was “no significant fluorescein staining in either eye”.

Which “anesthetic effect, toxicity and safety” value (cornea [3]) does the source give for `CCCOc1ccc(C(=O)OCCN(CC)CC)cc1N` [Proparacaine, proparacaine] here?
Its value is “non-anesthetic, non-toxic, and safe for at least one week of use”.

With `COC[C@@H](NC(C)=O)C(=O)NCc1ccccc1` [lacosamide] as the compound, how does the corneal neuropathic pain (corneal neuropathic pain [1]; Example 4, 0.003% lacosamide in BOS-P, approximately 10 hours/day) read?
Its corneal neuropathic pain is “significantly mitigated”.

What about the “eye and co-morbid pain symptoms” value (corneal neuropathic pain [1]; Example 6, chronic graft versus host disease patient, lacosamide 0.05% in scleral lens reservoir) of the same compound?
Its value is “disappeared”.

And the “maximum concentration that avoided significant depression of corneal sensation” value (corneal sensation; Example 4, titration, fluid reservoir of BOS-P)?
The value was 0.003%.

And the corneal sensation (corneal sensation; Example 5, eye drops 0.5% lacosamide, two patients and an eye of the inventor)?
The corneal sensation was “did not depress corneal sensation”.

What about the “effects on the corneas by slit lamp examination and confocal microscopy” value (cornea [2]; Example 4, 0.003% lacosamide in BOS-P) of the same compound?
Its value is “without any detrimental effects to the corneas”.

What about the “duration of effect, one patient” value (corneal neuropathic pain [4]) of the same compound?
Its value is “over four hours”.

And the “duration of effect, the other patient” value (corneal neuropathic pain [4])?
Its value is “over two hours”.

What about the “onset of pain resolution” value (corneal neuropathic pain [4]) of the same compound?
The value was “almost immediately after administration”.

And the corneal neuropathic pain (corneal neuropathic pain [4]; both patients)?
The corneal neuropathic pain was “complete resolution of corneal neuropathic pain”.

What does the source list for `CCCN1CCCC[C@H]1C(=O)Nc1c(C)cccc1C` [ropivacaine]?
eye pain and photophobia, lenses worn until midnight the previous day (corneal neuropathic pain [1]; Example 3, 0.015% ropivacaine in scleral lenses): total resolution of eye pain and photophobia; symptoms at examination, 2 hours after inserting lenses (corneal neuropathic pain [1]; Example 3, 0.015% ropivacaine, following day): free of symptoms; eye pain and photosensitivity following application (corneal neuropathic pain [1]; Example 3, Stevens-Johnson syndrome patient, 0.015% ropivacaine in scleral lenses, first day): rapid mitigation of eye pain and photosensitivity; eye pain and photophobia at subsequent examinations (corneal neuropathic pain [1]; Example 3, ropivacaine in scleral lenses): significant mitigation of eye pain and photophobia; corneal sensitivities at subsequent examinations (corneal sensation; in vivo): normal corneal sensitivities; corneal sensitivity by Cochet-Bonnet aesthesiometer (corneal sensation; in vivo): normal; adverse effects on the eyes from the treatment (cornea [2]; in vivo): no adverse effects; treatment-related complications at subsequent examinations (cornea [2]; in vivo): without adverse treatment-related complications
